Source: patent US9617262B2, “Antibacterial cyclopental[C]pyrrole substituted 3,4-dihydro-1H-[1,8]naphthyridinones” (Janssen Sciences Ireland UC, priority 2011, dated 2017)
≈ marks a conversion by molar mass, not a printed value.

Key:
Human HelaM cells = assay: Cytotoxicity MTT assay (TOX HELAM); assay type: cell-based; details: 72 hours
Method: Cytotoxicity of the compounds was evaluated using the MTT assay. Human HelaM cells grown in 96-well plates were exposed to serial dilutions of the tested compounds (final volume of 0.2 ml) and incubated for 72 hours at 37° C. and 5% CO2. Inhibitors are typically varied over the range of 25 to 0.8 μM. The final DMSO concentration in the assay is 0.5%. MTT (3-(4,5-Dimethylthiazol-2-yl)-2,5-diphenyltetrazolium bromide, a tetrazole) was added and reduced to purple formazan only in living cells. Solubilization of the formazan crystals was achieved by adding 100 μl 2-propanol. Cell viability was determined by measuring the absorbance of the reduced formazan, giving a purple color, at 540 nm and 690 nm. The absorbance measured at 690 nm was automatically subtracted from the absorbance at 540 nm, to eliminate the effects of non-specific absorption. The percent cytotoxicity achieved by the compounds was calculated according to standard methods. Cytotoxicity is reported as CC50, the concentration that causes a 50% reduction in cell viability.
The results are depicted in the table D2 below (TOX HELAM).

[1] = molecular target: S. aureus ATCC 29213 FabI (Staphylococcus aureus (strain MRSA252), UniProt Q6GI75); assay: Staphylococcus aureus FabI enzyme inhibition assay; assay type: biochemical; details: pH 6.5, 30 minutes at room temperature
Method: FabI enzyme inhibition assays were carried out in half-area, 384-well microtitre plates. Compounds were evaluated in 40-μl assay mixtures containing 100 mM NaADA, pH 6.5 (ADA=N-[2-acetamido]-2iminodiacetic acid), 250 μM crotonoyl-CoA, 625 μM NADH and 50 μg/ml S. aureus ATCC 29213 FabI. Inhibitors were typically varied over the range of 50 to 0.39 μM. The reaction mixtures were incubated for 30 minutes at room temperature and the reaction was stopped by adding 200 mM Tris buffer (pH 9.0) to create a pH-shift. The consumption of NADH was monitored by measuring the change in absorbance at […]. By comparing sample readings to those of negative (absence of compound) and positive (absence of enzyme) controls, the percent inhibition of enzymatic activity of the compounds was determined. A best-fit curve is fitted by a minimum of squares method. From this an IC50-value (expressed in μg/ml), resulting in 50% inhibition of enzymatic activity, was obtained.

[2] = test system: Staphylococcus aureus ATCC 43300; reference strain MRSA; assay: Antimicrobial spectrum, broth microdilution MIC; assay type: cell-based; details: S. aureus ATCC 43300
Method: (§1) Minimum Inhibitory Concentrations (MICs) were determined in accordance with the Clinical and Laboratory Standards Institute (CLSI) methodology against aerobic bacteria (CLSI M07-A8) (see Clinical and Laboratory Standards Institute. 2009. Methods for dilution antimicrobial susceptibility tests for bacteria that grow aerobically. CLSI document M07-A8, Vol. 29, No. 2.) by the broth microdilution method with cation-adjusted Mueller-Hinton broth (CA-MHB) medium for the majority of organisms, except for Haemophilus influenza, where Haemophilis test medium (HTM) broth was used. Descriptions of the individual organisms can be found in the table. Where possible, ATCC standard strains were tested.
(§2) The inoculum density for the susceptibility testing was standardized to give a final inoculum of approximately 5×10^5 CFU/mL.
(§3) Stock solutions of the compounds were prepared in DMSO at concentrations of 1 mg/mL. Linezolid was prepared in DMSO at a concentration of 2 mg/mL. Stock solutions of all compounds were diluted into CA-MHB to give a range of two-fold dilutions, depending upon the sensitivity of the organism being tested.

[3] = test system: Staphylococcus aureus ATCC 29213; reference strain MSSA; assay: Antimicrobial spectrum, broth microdilution MIC; assay type: cell-based; details: S. aureus ATCC 29213
Method: as §1, §2, §3

[4] = test system: Staphylococcus aureus NRS121; LZD-R; assay: Antimicrobial spectrum, broth microdilution MIC; assay type: cell-based; details: S. aureus NRS121
Method: as §1, §2, §3

[5] = test system: Escherichia coli ATCC 25922; reference strain; assay: Antimicrobial spectrum, broth microdilution MIC; assay type: cell-based; details: E. coli ATCC 25922
Method: as §1, §2, §3

[6] = test system: Staphylococcus aureus NRS120; LZD-R; assay: Antimicrobial spectrum, broth microdilution MIC; assay type: cell-based; details: S. aureus NRS120
Method: as §1, §2, §3

[7] = test system: Staphylococcus aureus NRS119; LZD-R; assay: Antimicrobial spectrum, broth microdilution MIC; assay type: cell-based; details: S. aureus NRS119
Method: as §1, §2, §3

[8] = test system: Escherichia coli Tol C mutant; assay: Antimicrobial spectrum, broth microdilution MIC; assay type: cell-based; details: E. coli tolC mutant
Method: as §1, §2, §3

[9] = In vivo pharmacokinetic and oral bioavailability; details: male Swiss mice; for C0: 20% HP-β-CD solution
Method: The in vivo pharmacokinetics and oral bioavailability of the compound of the examples was/is investigated in male Swiss mice (fed) following single intravenous (i.v.) bolus and oral (p.o.) administration. For the i.v. and p.o. solution formulations, the compound was/is dissolved in a 20% HP-β-CD solution. The pH of the formulations was/is around pH 4. All i.v. formulations were isotonic.

[10] = test system: Staphylococcus aureus ATCC 29213; assay: Antibacterial susceptibility testing: IC90 determination (STA); assay type: cell-based; details: STA ATCC 29213, 90% inhibitory concentration for bacterial growth
Method: (§4) The following bacteria were used: Staphylococcus aureus ATCC 29213, methicillin-resistant Staphylococcus aureus (MRSA) ATCC 700788 and Escherichia coli ATCC 35218. The bacteria used in this study were grown overnight in flasks containing 100 ml Mueller-Hinton broth (Difco cat. nr. 0757-17) in sterile de-ionized water, with shaking, at 37° C. Stocks were store at −70° C. until use.
(§5) Bacteria were incubated on a tryptic soy agar plate containing 5% sheep blood (Becton Dickinson cat. nr. 254053) for 18-24 hours at 35° C. in aerobic conditions (first passage). For the second passage, fresh Mueller-Hinton broth is inoculated with 5-10 colonies and grown overnight at 35° C. until turbidity (reaching log-phase) in aerobic conditions is reached. The bacterial suspension is then adjusted to 0.5 McFarland density and further diluted 1:100 in Mueller Hinton broth medium. This is used as inoculum.
(§6) MIC assays were performed by the broth microdilution method in a 96-well format (flat-bottom microtitre plates) with a final volume of 0.1 ml Mueller Hinton broth containing two-fold serial dilutions of compounds and inoculated with 5×10^5 CFU/ml of bacteria (standard inoculum size according to CLSI guidelines). Inhibitors are typically varied over the range of 63 to 0.49 μM. The final DMSO concentration in the assay was 1.25% (maximum tolerable DMSO concentration=6%). In the assays where the effect of human serum on the activity of the compounds against S. aureus was tested, human serum was added at a final concentration of 10%. The plates were incubated at 35° C. for 16-20 hours. At the end of incubation the bacterial growth was quantified fluorometrically. For this, resazurin was added to all wells and the plates were re-incubated. The incubation time is dependent on the type of bacteria. A change in color from blue to pink indicated the growth of bacteria. The fluorescence was read in computer-controlled fluorometer (Fluoroskan Ascent FL, Labsystems) at an excitation wavelength 540 nm and an emission wavelength of 590 nm. The % growth inhibition achieved by the compounds was calculated according to standard methods. The IC90 (expressed in μg/ml) was defined as the 90% inhibitory concentration for bacterial growth. A panel of reference compounds were simultaneously tested for QC approval.

S. aureus = assay: Antibacterial susceptibility testing: IC90 determination with 10% human serum (STA + 10% HS); assay type: cell-based, Staphylococcus aureus; details: human serum at a final concentration of 10%
Method: as §4, §5, §6
The results are depicted in the table D2 below (STA+10% HS).

[11] = test system: Haemophilus influenzae ATCC 49247; reference strain; assay: Antimicrobial spectrum, broth microdilution MIC; assay type: cell-based; details: H. influenza ATCC 49247
Method: as §1, §2, §3

Compound | TOX HELAM (222.125) CC50 (Human HelaM cells) | FabI IC50 [1] | MIC90 [2] | MIC90 [3] | MIC90 [5] | MIC90 [8] | AUC0-inf ([9]; i.v. 2.5 mg/kg) | Half life (t1/2) ([9]; i.v. 2.5 mg/kg) | Plasma clearance Cl ([9]; i.v. 2.5 mg/kg) | Vdz ([9]; i.v. 2.5 mg/kg) | C0 ([9]; i.v. 2.5 mg/kg) | STA (361.159) IC90 [10] | STA + 10% HS (361.169) IC90 (S. aureus) | further results
O=C1CCc2cc(/C=C/C(=O)N3CC4C=C(c5ccccc5)CC4C3)cnc2N1 (stereo not shown) [compound 1] | >3.8547 µg/mL | 0.32 µg/mL | 0.016 µg/mL (≈ 0.0415 µM) | 0.016 µg/mL (≈ 0.0415 µM) | >32 µg/mL | ≦0.03 μg/ml | 7074 ng·h/mL | 2.9 h | 5.83 mL/min/kg | 1.5 L/kg | 2921 ng/mL | 0.09 µg/mL | 0.17 µg/mL | MIC90 [4]: 0.016 µg/mL (≈ 0.0415 µM); MIC90 [6]: 0.016 µg/mL (≈ 0.0415 µM); MIC90 [7]: 0.03 µg/mL (≈ 0.0778 µM); Oral bioavailability ([9]; p.o. 5 mg/kg vs i.v. 2.5 mg/kg): 86%; AUC0-inf ([9]; p.o. 5 mg/kg): 12158 ng·h/mL; Cmax ([9]; p.o. 5 mg/kg): 1720 ng/mL; Half life (t1/2) ([9]; p.o. 5 mg/kg): 3.1 h; Tmax ([9]; p.o. 5 mg/kg): 2.0 h
O=C1CCc2cc(/C=C/C(=O)N3CC4C=C(c5ccsc5)CC4C3)cnc2N1 (stereo not shown) [compound 10] | >3.915 µg/mL | 0.53 µg/mL | 0.03 µg/mL (≈ 0.0766 µM) | 0.015 µg/mL (≈ 0.0383 µM) | >8 µg/mL | 0.125 µg/mL (≈ 0.319 µM) | 3992 ng·h/mL | 1.3 h | 10.7 mL/min/kg | 1.2 L/kg | 4154 ng/mL | 0.08 µg/mL | 0.13 µg/mL | MIC90 [11]: >8 µg/mL; Oral bioavailability ([9]; p.o. 10 mg/kg vs i.v. 2.5 mg/kg): 81%; AUC0-inf ([9]; p.o. 10 mg/kg): 12376 ng·h/mL; Cmax ([9]; p.o. 10 mg/kg): 3537 ng/mL; Half life (t1/2) ([9]; p.o. 10 mg/kg): 2.2 h; Tmax ([9]; p.o. 10 mg/kg): 1.0 h
